Measured values reported in patent US8575145B2, “Triazolopyridine compounds as PIM kinase inhibitors” (Array BioPharma Inc., priority 2008, dated 2013).
Where a name gives a salt, the structure may show the parent alone. Read-outs that look alike come from different tables or passages of the source.

How the values were obtained:
[1] = biological target: GST-tagged recombinant full-length human PIM-2 (Homo sapiens (Human), UniProt Q9P1W9); test: PIM-2 Enzyme Assay; conditions: read-out: PIM-2 IC50
recombinant rat PIM-3 = recombinant rat PIM-3 (Rattus norvegicus (Rat), UniProt O70444); test: PIM-3 Enzyme Assay; conditions: read-out: PIM-3 IC50, 30 μM ATP, 0.5 nM PIM-3
Experimental: The amount of radiolabeled product is then measured by liquid scintillation counting. The final buffer conditions were as follows: 20 mM K^+MOPS, pH 7.4, 10 mM MgCl2, 0.005% Tween-20, 1 mM DTT. […] Incubations were carried out for 60 min at 22° C. and quenched with 75 μL of 200 mM H3PO4, filtered through a Whatman P81 plate and washed (1×200 μL and 5×100 μL ) with 200 mM H3PO4. Liquid scintillation cocktail (50 μL ) was then added per well, and the plate was counted for 30 s/well using a TopCount NXT.
One-μL aliquots of these were then transferred to the assay mixtures above to give a final concentration of DMSO of 2%. […] For each plate, percent of control (POC) values were calculated for each well. IC50's were estimated from the POC's using a standard 4-parameter logistic model. The IC50 is defined as the concentration of inhibitor at which the POC equals 50 for the fitted curve.

PIM-1 = PIM-1 (Homo sapiens (Human), UniProt P11309); test: PIM-1 Enzyme Assay; type: biochemical
How it was run: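 Radiometric kinase assay in 20 mM K+MOPS pH 7.4, 10 mM MgCl2, 0.005% Tween-20, 1 mM DTT, 2% DMSO final; 60 min at 22° C, stopped with H3PO4, product captured on P81 filter and counted by scintillation. IC50 from 4-parameter logistic fit of percent of control.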

Chain of PIM-1 (P11309 whole entry, species assumed): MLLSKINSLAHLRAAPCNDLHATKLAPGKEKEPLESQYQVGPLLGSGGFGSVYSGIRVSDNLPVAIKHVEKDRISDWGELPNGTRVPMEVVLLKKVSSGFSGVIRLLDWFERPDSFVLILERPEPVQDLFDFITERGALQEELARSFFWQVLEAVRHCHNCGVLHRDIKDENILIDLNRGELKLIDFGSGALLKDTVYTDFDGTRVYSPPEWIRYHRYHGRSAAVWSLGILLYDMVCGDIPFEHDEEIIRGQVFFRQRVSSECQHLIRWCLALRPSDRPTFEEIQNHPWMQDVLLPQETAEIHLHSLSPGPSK
Chain of GST-tagged recombinant full-length human PIM-2 (Q9P1W9 whole entry): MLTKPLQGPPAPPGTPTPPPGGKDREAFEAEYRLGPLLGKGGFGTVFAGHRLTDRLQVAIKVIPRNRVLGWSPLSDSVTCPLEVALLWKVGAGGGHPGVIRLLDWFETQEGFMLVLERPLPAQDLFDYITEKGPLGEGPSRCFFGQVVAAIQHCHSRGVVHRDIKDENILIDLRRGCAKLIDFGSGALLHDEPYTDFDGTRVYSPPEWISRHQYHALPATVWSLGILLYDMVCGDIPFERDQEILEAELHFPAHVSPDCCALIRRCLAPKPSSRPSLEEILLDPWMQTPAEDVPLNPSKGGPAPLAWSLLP

| SMILES | IC50 ([1]; 4 μM ATP, […] PIM-2) | IC50 (recombinant rat PIM-3) | IC50 (PIM-1; 35 μM ATP, 0.25 nM PIM-1) | IC50 [1] | IC50 ([1]; 4 μM ATP, […] PIM-2, dihydrochloride) | IC50 (recombinant rat PIM-3; dihydrochloride) | IC50 (PIM-1; 35 μM ATP, 0.25 nM PIM-1, dihydrochloride) | IC50 (PIM-1) |
| --- | --- | --- | --- | --- | --- | --- | --- | --- |
| CC(C)CCN(CCCN)c1cccc2ccc(-c3nnc4ccccn34)nc12 [Example 8, N1-(2-([1,2,4]Triazolo[4,3-a]pyridin-3-yl)quinolin-8-yl)-N1-isopentylpropane-1,3-diamine] | 5570 nM | 93 nM | 16 nM | – | – | – | – | – |
| c1cc(OC2CCNCC2)c2nc(-c3nnc4ccccn34)ccc2c1 [Example 9, 2-([1,2,4]triazolo[4,3-a]pyridin-3-yl)-8-(piperidin-4-yloxy)quinoline di-trifluoroacetate] | – | 17 nM | 4 nM | 570 nM | – | – | – | – |
| c1cc(O[C@@H]2CCNC2)c2nc(-c3nnc4ccccn34)ccc2c1 [Example 11, (R)-2-([1,2,4]Triazolo[4,3-a]pyridin-3-yl)-8-(pyrrolidin-3-yloxy)quinoline] | 2470 nM | 33 nM | 23 nM | – | – | – | – | – |
| c1cc(O[C@H]2CCNC2)c2nc(-c3nnc4ccccn34)ccc2c1 [Example 12, (S)-2-([1,2,4]Triazolo[4,3-a]pyridin-3-yl)-8-(pyrrolidin-3-yloxy)quinoline] | 4910 nM | 77 nM | 30 nM | – | – | – | – | – |
| c1cc(OCC2CCNCC2)c2nc(-c3nnc4ccccn34)ccc2c1 [Example 14, 2-([1,2,4]Triazolo[4,3-a]pyridin-3-yl)-8-(piperidin-4-ylmethoxy)quinoline] | 562 nM | 11 nM | 2 nM | – | – | – | – | – |
| c1cc(OCCC2CCCCN2)c2nc(-c3nnc4ccccn34)ccc2c1 (stereo not drawn) [Example 15, 2-([1,2,4]Triazolo[4,3-a]pyridin-3-yl)-8-(2-(piperidin-2-yl)ethoxy)quinoline] | 4220 nM | 102 nM | 16 nM | – | – | – | – | – |
| CC(C)(CO)COc1cccc2ccc(-c3nnc4cc(CN)ccn34)nc12 [Example 19, 3-(2-(7-(aminomethyl)-[1,2,4]triazolo[4,3-a]pyridin-3-yl)quinolin-8-yloxy)-2,2-dimethylpropan-1-ol] | 17 nM | 2 nM | 0.7 nM | – | – | – | – | – |
| CC(C)COc1cccc2ccc(-c3nnc4cc(CN)ccn34)nc12 [Example 20, (3-(8-isobutoxyquinolin-2-yl)-[1,2,4]triazolo[4,3-a]pyridin-7-yl)methanamine] | 51 nM | 5 nM | 2 nM | – | – | – | – | – |
| OCC1(COc2cccc3ccc(-c4nnc5ccccn45)nc23)CC1 [Example 22, (1-((2-([1,2,4]triazolo[4,3-a]pyridin-3-yl)quinolin-8-yloxy)methyl)cyclopropyl)methanol] | 501 nM | 25 nM | 5 nM | – | – | – | – | – |
| c1cc(OC2CC3CCC(C2)N3)c2nc(-c3nnc4ccccn34)ccc2c1 (stereo not drawn) [Example 29, 8-(8-azabicyclo[3.2.1]octan-3-yloxy)-2-([1,2,4]triazolo[4,3-a]pyridin-3-yl)quinoline] | 585 nM | 30 nM | 5 nM | – | – | – | – | – |
| CCC(Oc1cccc2ccc(-c3nnc4ccccn34)nc12)[C@@H](CC)CN (stereo partly drawn) [Example 30, (2S)-3-(2([1,2,4]triazolo[4,3-a]pyridin-3-yl)quinolin-8-yloxy)-2-ethylpentan-1-amine] | 318 nM | 13 nM | 3 nM | – | – | – | – | – |
| CCC(Oc1cccc2ccc(-c3nnc4ccccn34)nc12)[C@H](CC)CN (stereo partly drawn) [Example 31, (2R)-3-(2-([1,2,4]triazolo[4,3-a]pyridin-3-yl)quinolin-8-yloxy)-2-ethylpentan-1-amine] | 413 nM | 19 nM | 4 nM | – | – | – | – | – |
| CC[C@@H](CN)C(C)Oc1cccc2ccc(-c3nnc4ccccn34)nc12 (stereo partly drawn) [Example 32, (2S)-3-(2-([1,2,4]triazolo[4,3-a]pyridin-3-yl)quinolin-8-yloxy)-2-ethylbutan-1-amine] | 399 nM | 17 nM | 4 nM | – | – | – | – | – |
| CC[C@H](CN)C(C)Oc1cccc2ccc(-c3nnc4ccccn34)nc12 (stereo partly drawn) [Example 33, (2R)-3-(2-([1,2,4]triazolo[4,3-a]pyridin-3-yl)quinolin-8-yloxy)-2-ethylbutan-1-amine] | 279 nM | 19 nM | 5 nM | – | – | – | – | – |
| CCCC(Oc1cccc2ccc(-c3nnc4ccccn34)nc12)[C@@H](CC)CN (stereo partly drawn) [Example 34, (2S)-3-(2-([1,2,4]triazolo[4,3-a]pyridin-3-yl)quinolin-8-yloxy)-2-ethylhexan-1-amine] | 1350 nM | 51 nM | 13 nM | – | – | – | – | – |
| CCCC(Oc1cccc2ccc(-c3nnc4ccccn34)nc12)[C@H](CC)CN (stereo partly drawn) [Example 35, (2R)-3-(2-([1,2,4]triazolo[4,3-a]pyridin-3-yl)quinolin-8-yloxy)-2-ethylhexan-1-amine] | 1360 nM | 48 nM | 10 nM | – | – | – | – | – |

| SMILES | IC50 ([1]; 4 μM ATP, […] PIM-2) | IC50 (recombinant rat PIM-3) | IC50 (PIM-1; 35 μM ATP, 0.25 nM PIM-1) | IC50 [1] | IC50 ([1]; 4 μM ATP, […] PIM-2, dihydrochloride) | IC50 (recombinant rat PIM-3; dihydrochloride) | IC50 (PIM-1; 35 μM ATP, 0.25 nM PIM-1, dihydrochloride) | IC50 (PIM-1) |
| --- | --- | --- | --- | --- | --- | --- | --- | --- |
| NC(=O)N1CCC(Oc2cccc3ccc(-c4nnc5ccccn45)nc23)CC1 [Example 40, 4-(2-([1,2,4]triazolo[4,3-a]pyridin-3-yl)quinolin-8-yloxy)piperidine-1-carboxamide] | 1280 nM | 46 nM | 12 nM | – | – | – | – | – |
| FC1CNCCCC1Oc1cccc2ccc(-c3nnc4ccccn34)nc12 (stereo not drawn) [Example 51, 2-([1,2,4]triazolo[4,3-a]pyridin-3-yl)-8-(3-fluoroazepan-4-yloxy)quinoline dihydrochloride] | – | 10 nM | 3 nM | 406 nM | – | – | – | – |
| c1cc(OC2CCCNCC2)c2nc(-c3nnc4ccccn34)ccc2c1 (stereo not drawn) [Example 52, 2-([1,2,4]triazolo[4,3-a]pyridin-3-yl)-8-(azepan-4-yloxy)quinoline dihydrochloride] | – | – | – | – | 110 nM | 4 nM | 2 nM | – |
| CN(C)C(=O)[C@@H]1C[C@@H](Oc2cccc3ccc(-c4nnc5ccccn45)nc23)CCN1 [Example 54, (2S,4S)-4-(2-([1,2,4]triazolo[4,3-a]pyridin-3-yl)quinolin-8-yloxy)-N,N-dimethylpiperidine-2-carboxamide dihydrochloride] | 10000 nM | 465 nM | 178 nM | – | – | – | – | – |
| CON(C)C(=O)[C@@H]1C[C@@H](Oc2cccc3ccc(-c4nnc5ccccn45)nc23)CCN1 [Example 55, (2S,4S)-4-(2-([1,2,4]triazolo[4,3-a]pyridin-3-yl)quinolin-8-yloxy)-N-methoxy-N-methylpiperidine-2-carboxamide dihydrochloride] | 10000 nM | 222 nM | 70 nM | – | – | – | – | – |
| OC[C@@H]1C[C@@H](Oc2cccc3ccc(-c4nnc5ccccn45)nc23)CCN1 [Example 56, ((2S,4S)-4-(2-([1,2,4]triazolo[4,3-a]pyridin-3-yl)quinolin-8-yloxy)piperidin-2-yl)methanol dihydrochloride] | 427 nM | 24 nM | – | – | – | – | – | 9 nM |
| c1cc(OC[C@@H]2CCCN2)c2nc(-c3nnc4ccccn34)ccc2c1 [Example 61, (S)-2-([1,2,4]triazolo[4,3-a]pyridin-3-yl)-8-(pyrrolidin-2-ylmethoxy)quinoline] | 10000 nM | 728 nM | 132 nM | – | – | – | – | – |
| OCC(O)COc1cccc2ccc(-c3nnc4ccccn34)nc12 (stereo not drawn) [Example 62, 3-(2-([1,2,4]triazolo[4,3-a]pyridin-3-yl)quinolin-8-yloxy)propane-1,2-diol] | 1720 nM | 262 nM | 34 nM | – | – | – | – | – |
| CC(C)(CN)COc1cccc2ccc(-c3nnc4ccc(C5CC5)cn34)nc12 [Example 64, 3-(2-(6-cyclopropyl-[1,2,4]triazolo[4,3-a]pyridin-3-yl)quinolin-8-yloxy)-2,2-dimethylpropan-1-amine dihydrochloride] | – | 5 nM | – | 323 nM | – | – | – | 0.64 nM |
| FC1(COc2cccc3ccc(-c4nnc5ccccn45)nc23)CCNCC1 [Example 66, 2-([1,2,4]triazolo[4,3-a]pyridin-3-yl)-8-((4-fluoropiperidin-4-yl)methoxy)quinoline dihydrochloride] | – | 3 nM | – | 52 nM | – | – | – | 0.8 nM |
| CC1(COc2cccc3ccc(-c4nnc5ccccn45)nc23)CCNCC1 [Example 67, 2-([1,2,4]triazolo[4,3-a]pyridin-3-yl)-8-((4-methylpiperidin-4-yl)methoxy)quinoline dihydrochloride] | 69 nM | 3 nM | 0.95 nM | – | – | – | – | – |
| CCC1(COc2cccc3ccc(-c4nnc5ccccn45)nc23)CCNCC1 [Example 68, 2-([1,2,4]triazolo[4,3-a]pyridin-3-yl)-8-((4-ethylpiperidin-4-yl)methoxy)quinoline dihydrochloride] | 126 nM | 10 nM | 1.3 nM | – | – | – | – | – |
| OC1(COc2cccc3ccc(-c4nnc5ccccn45)nc23)CCN(Cc2ccccc2)CC1 [Example 71, 4-((2-([1,2,4]triazolo[4,3-a]pyridin-3-yl)quinolin-8-yloxy)methyl)-1-benzylpiperidin-4-ol] | 10000 nM | 112 nM | 16 nM | – | – | – | – | – |
| COC1(COc2cccc3ccc(-c4nnc5ccccn45)nc23)CCNCC1 [Example 73, 2-([1,2,4]triazolo[4,3-a]pyridin-3-yl)-8-((4-methoxypiperidin-4-yl)methoxy)quinoline bis(trifluoroacetate)] | 79 nM | 5 nM | – | – | – | – | – | 0.96 nM |
| CC1(COc2cccc3ccc(-c4nnc5ccccn45)nc23)CCN(CCO)CC1 [Example 86, dihydrochloride] | – | 10 nM | 3 nM | 142 nM | – | – | – | – |
